Measurements as given in the supplement of paper PMC10307832.

Experiments:
Experiment in all cases: relative viability (nuclei count vs DMSO), 5 days (fraction); higher = more cells survive
Bexarotene + OSI-027 = compound: C=C(c1ccc(C(=O)O)cc1)c1cc2c(cc1C)C(C)(C)CCC2(C)C [Bexarotene] + COc1cccc2cc(-c3nc([C@H]4CC[C@H](C(=O)O)CC4)n4ncnc(N)c34)[nH]c12 [OSI-027] (partner 0.5 µM)
Summary of the method: (§1)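 After 5 days of treatment, lung cancer cells in 1536-well plates were fixed and stained in a single step (final 0.05% Triton X-100, 1% formaldehyde, 1 ug/ml Hoechst) and their nuclei counted on 4× images. Treatment had been applied by pin tool the day after seeding as one drug alone or as a fixed anchor-drug dose with five library-drug doses (not always all listed) in √10 steps. Relative viability is the nuclei count of treated wells divided by that of vehicle wells, and values are medians of duplicate plates.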

Bexarotene + Crizotinib = compound: C=C(c1ccc(C(=O)O)cc1)c1cc2c(cc1C)C(C)(C)CCC2(C)C [Bexarotene] + C[C@@H](Oc1cc(-c2cnn(C3CCNCC3)c2)cnc1N)c1c(Cl)ccc(F)c1Cl [Crizotinib] (partner 1 µM)
Summary of the method: as §1

Bexarotene + Phenformin = compound: C=C(c1ccc(C(=O)O)cc1)c1cc2c(cc1C)C(C)(C)CCC2(C)C [Bexarotene] + N=C(N)NC(=N)NCCc1ccccc1 [Phenformin] (partner 250 µM)
Summary of the method: as §1

Bexarotene + Trametinib = compound: C=C(c1ccc(C(=O)O)cc1)c1cc2c(cc1C)C(C)(C)CCC2(C)C [Bexarotene] + CC(=O)Nc1cccc(-n2c(=O)n(C3CC3)c(=O)c3c(Nc4ccc(I)cc4F)n(C)c(=O)c(C)c32)c1 [Trametinib] (partner 0.02 µM)
Summary of the method: as §1

| Cell Line | relative viability (Bexarotene + OSI-027; first compound 0.08 µM) | relative viability (Bexarotene + OSI-027; first compound 0.253 µM) | relative viability (Bexarotene + OSI-027; first compound 0.8 µM) | relative viability (Bexarotene + OSI-027; first compound 2.53 µM) | relative viability (Bexarotene + OSI-027; first compound 8 µM) | relative viability (Bexarotene + Crizotinib; first compound 0.08 µM) | relative viability (Bexarotene + Crizotinib; first compound 0.253 µM) | relative viability (Bexarotene + Crizotinib; first compound 0.8 µM) | relative viability (Bexarotene + Crizotinib; first compound 2.53 µM) | relative viability (Bexarotene + Crizotinib; first compound 8 µM) | relative viability (Bexarotene + Phenformin; first compound 0.08 µM) | relative viability (Bexarotene + Phenformin; first compound 0.253 µM) | relative viability (Bexarotene + Phenformin; first compound 0.8 µM) | relative viability (Bexarotene + Phenformin; first compound 2.53 µM) | relative viability (Bexarotene + Phenformin; first compound 8 µM) | relative viability (Bexarotene + Trametinib; first compound 0.08 µM) | relative viability (Bexarotene + Trametinib; first compound 0.253 µM) | relative viability (Bexarotene + Trametinib; first compound 0.8 µM) | relative viability (Bexarotene + Trametinib; first compound 2.53 µM) | relative viability (Bexarotene + Trametinib; first compound 8 µM) |
| --- | --- | --- | --- | --- | --- | --- | --- | --- | --- | --- | --- | --- | --- | --- | --- | --- | --- | --- | --- | --- |
| HCC-366 | 1.2 | 0.968 | 0.974 | 0.888 | 0.913 | 0.526 | 0.62 | 0.35 | 0.574 | 0.586 | 0.624 | 0.608 | 0.579 | 0.533 | 0.597 | 0.357 | 0.375 | 0.361 | 0.295 | 0.263 |
| HCC-827 | 0.843 | 0.739 | 0.715 | 0.867 | 0.74 | 0.894 | 0.939 | 0.902 | 0.94 | 0.915 | 0.51 | 0.444 | 0.493 | 0.463 | 0.444 | 0.525 | 0.576 | 0.493 | 0.496 | 0.51 |
| HOP-62 | 0.92 | 0.841 | 0.847 | 0.803 | 0.802 | 1.18 | 0.915 | 0.953 | 1.09 | 0.944 | 0.738 | 0.701 | 0.698 | 0.651 | 0.571 | 0.412 | 0.502 | 0.385 | 0.412 | 0.422 |
| IA-LM | – | – | – | – | – | – | 1.03 | 0.676 | 0.678 | 0.62 | – | – | – | – | – | – | – | – | – | – |
| LC-2-ad | 0.894 | 0.944 | 0.779 | 0.8 | 0.881 | 0.443 | 0.46 | 0.44 | 0.504 | 0.412 | 0.607 | 0.578 | 0.611 | 0.521 | 0.546 | 1.06 | 0.941 | 0.96 | 0.968 | 0.948 |
| LCLC-97TM1 | 0.427 | 0.54 | 0.598 | 0.561 | 0.515 | 0.478 | 0.343 | 0.576 | 0.409 | 0.472 | 0.473 | 0.438 | 0.406 | 0.454 | 0.451 | 0.187 | 0.216 | 0.157 | 0.165 | 0.191 |
| LCLC-103H | 0.522 | 0.434 | 0.354 | 0.461 | 0.448 | 1.15 | 1.21 | 1.03 | 0.999 | 1.12 | 0.373 | 0.349 | 0.314 | 0.348 | 0.347 | 0.761 | 0.697 | 0.678 | 0.663 | 0.764 |
| LK-2 | 0.262 | 0.207 | 0.237 | 0.202 | 0.255 | 0.309 | 0.213 | 0.206 | 0.221 | 0.247 | 1.15 | 0.506 | 0.381 | – | 0.47 | 0.838 | 0.895 | 0.779 | 0.719 | 0.915 |
| LOU-NH91 | 0.709 | 0.718 | 0.606 | 0.599 | 0.643 | 0.767 | 0.73 | 0.696 | 0.686 | 0.639 | 0.687 | 0.673 | 0.595 | 0.6 | 0.49 | 0.81 | 0.856 | 0.807 | 0.795 | 0.759 |
| LU99A | 0.325 | 0.361 | 0.286 | 0.316 | 0.315 | 0.495 | 0.634 | 0.573 | 0.524 | 0.542 | 1.24 | 0.89 | 0.862 | 0.829 | 0.912 | 0.659 | 0.531 | 0.608 | 0.52 | 0.417 |
| LXF-289 | 0.912 | 0.925 | 0.757 | 0.572 | 0.731 | 0.901 | 0.994 | 1 | 0.979 | 0.973 | 0.591 | 0.544 | 0.523 | 0.516 | 0.508 | 0.797 | 0.832 | 0.792 | 0.755 | 0.747 |
| NCI-H23 | 0.607 | 0.597 | 0.6 | 0.55 | 0.461 | 0.534 | 0.561 | 0.514 | 0.647 | 0.529 | 0.854 | 0.759 | 0.694 | 0.763 | 0.712 | 0.447 | 0.435 | 0.395 | 0.364 | 0.347 |
| NCI-H522 | 0.722 | 0.721 | 0.677 | 0.706 | 0.705 | – | – | – | – | – | 0.612 | 0.521 | 0.591 | 0.518 | 0.626 | 0.736 | 0.805 | 0.74 | 0.797 | 0.736 |
| NCI-H1395 | 0.672 | 0.653 | 0.616 | 0.624 | 0.633 | – | – | – | – | – | 0.456 | 0.457 | 0.412 | 0.415 | 0.471 | 1.18 | 1.03 | 1.15 | 0.908 | 1.1 |
| NCI-H1563 | 0.842 | 0.787 | 0.813 | 0.897 | 0.849 | 0.842 | 0.843 | 0.916 | 0.876 | 0.81 | 0.682 | 0.665 | 0.669 | 0.674 | 0.619 | – | – | – | – | – |
| NCI-H1648 | 0.272 | 0.262 | 0.27 | 0.225 | 0.255 | – | – | – | – | – | – | – | – | – | – | 0.448 | 0.483 | 0.559 | 0.469 | 0.529 |
| NCI-H1703 | – | – | – | – | – | 0.414 | 0.601 | 0.57 | 0.421 | 0.522 | – | – | – | – | – | – | – | – | – | – |
| NCI-H1793 | 0.339 | 0.319 | 0.313 | 0.203 | 0.311 | – | – | – | – | – | 0.51 | 0.386 | 0.36 | 0.37 | 0.358 | 0.395 | 0.4 | 0.415 | 0.397 | 0.408 |
| NCI-H2342 | 0.612 | 0.6 | 0.553 | 0.686 | 0.707 | – | – | – | – | – | 0.62 | 0.544 | 0.605 | 0.647 | 0.72 | 0.927 | 0.767 | 0.794 | 0.825 | 0.745 |
| SW 900 | 0.673 | 0.739 | 0.739 | 0.55 | 0.451 | – | – | – | – | – | 0.643 | 0.64 | 0.598 | 0.46 | 0.572 | 0.635 | 0.846 | 0.85 | 0.81 | 0.647 |
